How the values were obtained:
[1] = system: GABAAR; assay: Whole-cell patch clamp electrophysiology in A375 melanoma cells; assay type: cell-based, human; conditions: for mode of action at GABAAR from electrophysiology: A375 and B16F10 cells; for EC50: read-out: EC50, enhancement of the effect of GABA, [GABA]=1 μM, benzodiazepine 0-10 μM
Protocol: (§1) GABAAR is an anion (Cl—) channel that changes the transmembrane potential of cells, either depolarizing or hyperpolarizing depending upon channel directionality and activity of other membrane transport protein. To establish autonomous expression of GABAAR subunits in melanoma cell lines results in assembly of a functional ligand-dependent channel, electrophysiological testing was performed in human melanoma (A375) and murine (B16F10) lines. Patch clamp currents were recorded for A375 and B16F10. […] A fully functional benzodiazepine binding site requires assembly of a GABAAR with a canonical αβαβγ subunit stoichiometry.
(§2) Two benzodiazepines were tested (QH-II-066 and KRM-II-08). QH-II-066 and KRM-II-08 differ in having H and F at R2′ of the benzene ring of benzodiazepine, respectively.

[2] = system: GABAAR; assay: Whole-cell patch clamp electrophysiology in B16F10 melanoma cells; assay type: cell-based, murine; conditions: for EC50: read-out: EC50, enhancement of the effect of GABA, [GABA]=1 μM, benzodiazepine 0-10 μM
Protocol: as §1, §2

[3] = system: A375 cells; assay: Melanoma cell viability, 48 hours treatment, A375; assay type: cell-based, human; conditions: for effect on cell viability: A375; for IC50: Homo sapiens, A-375, A375, 48 hours, read-out: IC50, reduction in cell viability
Protocol: (§3) The electrophysiology whole-cell patch clamp experiments occur within a minute. […] To determine their effect on melanoma cell survival, A375 and B16F10 were treated with QH-II-066, KRM-II-08, or diazepam for 48 hours.

[4] = system: B16F10 cells; assay: Melanoma cell viability, 48 hours treatment, B16F10; assay type: cell-based, murine; conditions: for effect on cell viability: B16F10; for IC50: Mus musculus, B16-F10, B16F10, 48 hours, read-out: IC50, reduction in cell viability
Protocol: as §3

[5] = system: A375 and B16F10 cells; assay: p53 expression and mitochondrial transmembrane potential in melanoma cells; assay type: cell-based, human and murine
Protocol: Changes induced by the benzodiazepine as a consequence of creating a net efflux of chloride anion, included an upregulation of TP53 and a depolarization of the mitochondrial transmembrane potential, ultimately resulting in apoptosis via the intrinsic mitochondria-mediated pathway. Thus, Experiments were performed to determine if benzodiazepine elicited a similar response in A375 and B16F10 cells.

[6] = system: B16F10-GP tumor; assay: B16F10-GP syngeneic melanoma murine model, bilateral flank tumors, tumor volume; assay type: in vivo, C57BL/6 mice
Protocol: The clinical observation of improved outcome for RT-ICI was analyzed using a murine model. B16F10-GP cells (0.5×10^5) were implanted in both right and left flanks of C57BL/6 mice (FIG. 1A). A single dose of radiation at 10 Gy was delivered to the right flank only using a 0.5 cm bolus material, on Day 10 after implanting the melanoma cells. Day 10 was chosen to allow for growth of tumor cells in flanks to the point where they became palpable. […] Anti-PD-L1 was given by intraperitoneal injection every third day.
Since melanoma cell viability in vitro was impaired by benzodiazepines QH-II-066 and KRM-II-08, experiments were performed to determine if benzodiazepine had anti-tumor activity in vivo. […] Given that immune checkpoint inhibitor efficacy is enhanced by radiation therapy, experiments were performed to determine whether RT combined with QH-II-066 synergize to control ipsilateral and abscopal tumor volume using the B16F10-GP syngeneic melanoma murine model. B16F10-GP melanoma cells were implanted (0.5×10^5) in both right and left flanks of C57BL/6 mice (FIG. 3B). A single dose of radiation (either 10 or 5 Gy) was delivered to the right flank on Day 10 after implanting of B16F10-GP cells. […] There was no difference when using different radiation doses (10 or 5 Gy).
Having observed that QH-II-066 could sensitize a melanoma tumor to radiation and that expression of genes with roles in the cytokine:cytokine receptor interaction pathway was enhanced, experiments were performed to determine if QH-II-066 was capable of potentiating the programmed death ligand 1 immune checkpoint inhibitor (anti-PD-L1). B16F10-GP melanoma cells were implanted in both the right and left flanks of C57BL/6 mice. Day 10 in both the right and left flanks injected i.p.: (i) QH-II-066 (10 mg/kg), then every day for seven days; (ii) anti-PD-L1 (200 μg), then every third day thereafter; (iii) QH-II-066 (10 mg/kg) and anti-PD-L1 (200 μg) at time and frequency detailed for monotherapy treatment groups (FIG. 5).
Having observed potentiation of radiation and anti-PD-L1 by QH-II-066 individually, there might be a more significant tumor response if we administered a ‘combo’ consisting of radiation (5 Gy), anti-PD-L1, plus QH-II-066. As before, B16F10-GP melanoma cells were implanted in both the right and left flanks of C57BL/6 mice (FIG. 5). The following experimental groups were tested: (i) vehicle alone control; (ii) QH-II-066 alone (10 mg/kg); (iii) a single morning dose of radiation (5 Gy) delivered to the right flank, followed by evening dose of QH-II-066 (10 mg/kg); (iv) anti-PD-L1 plus QH-II-066; (v) a single morning dose of radiation (5 Gy) delivered to the right flank, followed by an evening dose of anti-PD-L1; (vi) a triple or combo therapy, consisting of a single morning dose of radiation (5 Gy) delivered to the right flank, followed by evening doses of anti-PD-L1 plus QH-II-066. After initial i.p. injection of QH-II-066 on Day 10, QH-II-066 was injected i.p. every day for seven days; while anti-PD-L1 was injected i.p. every third day thereafter.
B16F10-GP cell line was grown in Dulbecco's Modified Eagle's medium (DMEM) supplemented with 10% Fetal Bovine Serum, 100 U/mL penicillin and 100 μg/mL streptomycin, 2 mM glutamine. Cells were cultured at 37° C. with 5% CO2.
B16F10-GP melanoma cells ([…]) were implanted in matrigel (25%) on right and left flank of 6-8 week old female C57BL/6 mice (Jackson Laboratories, Bar Harbor, Me.). […]

[7] = system: CD8+ T cells in B16F10-GP tumors; assay: Immunophenotyping of tumor infiltrating lymphocytes of bilateral B16F10-GP tumors by flow cytometry; assay type: in vivo, C57BL/6 mice
Protocol: Mice were sacrificed and tumor infiltrating lymphocytes (TILs) were isolated, stained, and analyzed using flow cytometry. For cytokine analysis, TILs were stimulated with GP33 peptide for 6 hours in presence of GolgiStop™ and GolgiPlug™ and analyzed using flow cytometry. Tumor weight and Lymphocyte number per gram tumor.
To determine whether these apparent synergistic effects were mediated by an enhanced immune response, immunophenotyping of bilateral tumors was performed. […] (FIG. 4A-4E).

[8] = system: medulloblastoma cancer cells; conditions: sustained incubation; cited from earlier work
[9] = non-human primates, previously tested; cited from earlier work

| SMILES | effect on cell viability [3] | effect on cell viability [4] | mode of action at GABAAR from electrophysiology [1] | EC50 ([1]; A375 cells) | EC50 [2] | IC50 [3] | IC50 [4] | effectiveness in impairing cell viability versus diazepam [8] | other results |
| --- | --- | --- | --- | --- | --- | --- | --- | --- | --- |
| NCCCC(=O)O [GABA, gamma-aminobutyric acid, reference compound] | – | – | – | – | – | – | – | – | maximal response to GABA (current) ([1]; A375 cells, patch clamp, n=8): −230±41 pA; maximal response to GABA (current) ([2]; patch clamp, n=6): −430±70 pA |
| CC(=O)[C@H]1CC[C@H]2[C@@H]3CC[C@H]4C[C@H](O)CC[C@]4(C)[C@H]3CC[C@]12C [Allopregnanolone, allopregnanolone, reference compound] | does not impair | does not impair | – | – | – | – | – | – | – |
| C#Cc1ccc2c(c1)C(c1ccccc1)=NCC(=O)N2C [QH-II-066, 7-ethynyl-1-methyl-5-phenyl-1,3-dihydro-2H-benzo[e][1,4]diazepin-2-one] | – | – | GABAAR positive allosteric modulators | 900 ± 400 nM | 160 ± 90 nM | 2700 ± 200 nM | 8200 ± 900 nM | more than an order of magnitude improved effectiveness | expression of p53 [5]: enhanced expression of p53; time to depolarization of the mitochondrial transmembrane potential [5]: ≤ 10 min; ipsilateral and abscopal tumor effect, combo of radiation, anti-PD-L1 and QH-II-066 ([6]; 5 Gy right flank Day 10, then anti-PD-L1 200 μg every third day plus QH-II-066 10 mg/kg daily 7 days): complete tumor regression in some animals; B16F10-GP tumor growth, monotherapy dose response ([6]; 10, 25 and 50 mg/kg i.p. daily for a week, negligible difference between 25 and 50 mg/kg): dose-dependent reduction; anti-tumor effect on ipsilateral and contralateral tumor, combination with radiation therapy ([6]; 10 or 5 Gy right flank Day 10, then QH-II-066 10 mg/kg daily 7 days): strongly synergistic anti-tumor effect; tumor volume, dual therapy QH-II-066 and anti-PD-L1 ([6]; QH-II-066 10 mg/kg daily 7 days plus anti-PD-L1 200 μg every third day): most significant reduction in tumor volume; tumor volume, monotherapy ([6]; QH-II-066 10 mg/kg i.p. daily 7 days or anti-PD-L1 200 μg i.p. every third day, from Day 10): comparable reductions in tumor volume; CD8+ T cell infiltration of ipsilateral tumor, radiation in combination with QH-II-066 ([7]; 10 or 5 Gy plus QH-II-066, compared to vehicle): enhanced infiltration of CD8+ T cells; CD8+ T cell infiltration of tumor, QH-II-066 alone ([7]; QH-II-066 10 mg/kg alone, compared to vehicle): did not induce CD8+ T cell infiltration; antigen-specific, poly-functional T cells (expressing IFN-γ and TNF-α) in ipsilateral and contralateral tumors ([7]; ipsilateral radiation therapy + systemic QH-II-066): significant increase; adverse side effects or toxicity [9]: without any adverse side effects or toxicity |
| C#Cc1ccc2c(c1)C(c1ccccc1F)=NCC(=O)N2C [KRM-II-08, 7-ethynyl-5-(2-fluorophenyl)-1-methyl-1,3-dihydro-2H-benzo[e][1,4]diazepin-2-one] | – | – | GABAAR positive allosteric modulators | 1700 ± 200 nM | 200 ± 100 nM | 1330 ± 80 nM | 6100 ± 800 nM | more than an order of magnitude improved effectiveness | – |
| CN1C(=O)CN=C(c2ccccc2)c2cc(Cl)ccc21 [diazepam, reference compound] | no effect | no effect | – | – | – | – | – | – | – |

— US20220079952A1, “Uses of Radiation and Benzodiazepine Derivatives in Cancer Therapies” (Emory University, priority 2019, published 2022)
